Measured values reported in patent US20100204219A1, “AROMATIC 1,4-DI-CARBOXYLAMIDES AND THEIR USE” (priority 2006, published 2010).

Legend:
Assay type in all cases: binding
Conditions in all cases: Example 1
[1] = biological target: T1, βCat-BCL9 (beta-Catenin/BCL9-BCL9L interaction) (Homo sapiens, UniProt P35222); assay: ELISA based protein-protein interaction assay, βCat-BCL9
T1 sequence (P35222 1-781): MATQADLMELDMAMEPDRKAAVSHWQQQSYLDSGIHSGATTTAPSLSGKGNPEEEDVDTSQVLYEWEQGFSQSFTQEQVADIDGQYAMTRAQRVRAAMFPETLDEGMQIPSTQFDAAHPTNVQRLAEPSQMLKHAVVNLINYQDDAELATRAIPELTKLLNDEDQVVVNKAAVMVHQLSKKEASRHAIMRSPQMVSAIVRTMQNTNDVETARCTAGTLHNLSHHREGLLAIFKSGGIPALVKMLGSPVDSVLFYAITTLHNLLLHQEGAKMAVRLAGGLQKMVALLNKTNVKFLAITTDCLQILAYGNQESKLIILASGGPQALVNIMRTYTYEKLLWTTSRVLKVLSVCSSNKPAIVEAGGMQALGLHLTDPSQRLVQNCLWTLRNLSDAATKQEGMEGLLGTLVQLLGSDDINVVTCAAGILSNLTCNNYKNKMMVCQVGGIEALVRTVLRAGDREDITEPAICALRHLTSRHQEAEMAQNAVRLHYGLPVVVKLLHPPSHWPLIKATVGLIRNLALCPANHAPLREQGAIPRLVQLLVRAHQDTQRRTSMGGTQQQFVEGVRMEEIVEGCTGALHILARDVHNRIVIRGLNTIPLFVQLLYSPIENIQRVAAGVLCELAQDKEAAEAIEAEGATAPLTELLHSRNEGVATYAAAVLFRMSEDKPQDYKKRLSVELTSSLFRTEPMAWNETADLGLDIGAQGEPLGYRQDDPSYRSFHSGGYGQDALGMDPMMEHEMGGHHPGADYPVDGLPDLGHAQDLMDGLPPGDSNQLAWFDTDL
From the text: (§1) cDNAs including the binding domains of Lgs and beta-Catenin were fused down-stream of glutathione-S-transferase (GST) cDNA in pGEX-4T inducible bacterial expression vector (Pharmacia). Similar recombinant DNA constructs were generated in the pET-32a(+) vector (Novagen) for expression of fusion protein containing the Thioredoxine-6His tag at their N-terminus. Fusion proteins were produced in BL21 bacteria (e.g. Stratagene) following manufacturer's recommendation.
(§2) To isolate the produced fusions protein, bacteria were ground in aluminum oxide (Sigma, A2039) and the resulting powder extracted in lysis buffer (140 mM NaCl, 10 mM Na2HPO4, 1.8 mM KH2PO4, 2.7 mM KCl, 1 mM EDTA, 1% Triton-X-100, 1 mM DTT and protease inhibitors) under rotation for 30 minutes. Supernatants were cleared by centrifugation then filtered on a 0.45 μm membrane before protein purification. For GST tagged protein, lysate were processed on glutathione agarose beads following manufacturer's recommendation (Amersham Pharmacia) and purified proteins eluted in 50 mM Tris-Cl, 10 mM reduced glutathione pH8.0. For thioredoxine-6His fusions, tagged proteins were purified from the lysate on a nickel chelating column (e.g. Hitrap chelating, G.E. Healthcare) using an HPLC system (e.g. Akta Prime, G.E. Healthcare) and eluted under increasing concentration of imidazole. The purified proteins solution was dialyzed against PBS before use. The quality of the preparations was checked by SDS-gel electrophoresis by standard methods well known by persons skilled in the art.
(§3) Compound preparation: Compounds can be prepared as 25 mM stock in DMSO and diluted in DMSO to reach final test concentrations of up to 100 μM. Final DMSO concentration in the assay is 5%.
(§4) 100 μl of GST fusion protein (e.g. GST-βCatenin) diluted to the appropriate concentration in phosphate buffer saline are added per well to a 96 well plate with high protein binding capacity (e.g. Nunc Maxisorp) and placed at 4° C. overnight. The following day the liquid in the wells is discarded and 150 μl 3% bovine serum albumin (BSA) in PBS are added to each well and incubated at room temperature for 2 hours under moderate shaking. This solution is then discarded and each well washed twice with 200 μl PBS. After carefully discarding the second wash, a mixture of 5 μl compound dilution and 95 μl 6His fusion protein (e.g. 6His-Bcl9) diluted to the appropriate concentration in PBS is added to each well. The plate is then incubated for 1 hour at room temperature under moderate shaking. This protein solution is then discarded and the wells washed 3 times with 200 μl 0.1% Tween-20 solution in PBS. After carefully discarding the final wash, 100 μl of anti 6His antibody conjugated to the horse-radish peroxidase (e.g. Roche antibody 11965085001) at the appropriate dilution in 1% BSA in PBS is added to the wells and the plate incubated for 1 hour at room temperature under moderate shaking. This solution is then discarded and the wells washed 3 times with 200 μl 0.1% Tween-20 solution in PBS. After carefully discarding the final wash, 100 μl of HRP substrate […] (TMB) in solution (e.g. Sigma T0440) is added to the wells and the plate incubated up to 30 minutes in the dark at room temperature. The reaction is stopped by addition of 100 μl of 2N HCl to each well and the optical density is measured at 450 nm and 630 nm.

[2] = biological target: T2, βCat-TCF4 (Tcf-4-βCatenin interaction) (Homo sapiens, UniProt P35222); assay: ELISA based protein-protein interaction assay, βCat-TCF4
T2 sequence (P35222 141-664 limits assumed): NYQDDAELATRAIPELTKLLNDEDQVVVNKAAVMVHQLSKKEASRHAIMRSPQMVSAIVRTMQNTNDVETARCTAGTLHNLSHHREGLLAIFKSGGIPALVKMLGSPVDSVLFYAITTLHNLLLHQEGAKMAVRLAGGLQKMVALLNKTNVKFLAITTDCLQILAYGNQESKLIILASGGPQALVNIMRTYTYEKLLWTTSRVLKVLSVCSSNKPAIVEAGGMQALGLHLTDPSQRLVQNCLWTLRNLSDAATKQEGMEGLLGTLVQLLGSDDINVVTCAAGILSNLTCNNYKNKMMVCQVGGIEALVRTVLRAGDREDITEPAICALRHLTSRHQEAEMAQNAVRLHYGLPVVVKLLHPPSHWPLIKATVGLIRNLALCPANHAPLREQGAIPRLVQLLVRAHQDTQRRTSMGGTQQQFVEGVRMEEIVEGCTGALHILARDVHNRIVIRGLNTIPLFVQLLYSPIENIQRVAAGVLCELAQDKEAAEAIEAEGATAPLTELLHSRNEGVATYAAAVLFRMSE
From the text: as §1, §2, §3, §4

[3] = biological target: T3, βCat-ECad (E-Cadherin-βCatenin interaction) (Homo sapiens, UniProt P35222); assay: ELISA based protein-protein interaction assay, βCat-ECad
T3 sequence (P35222 134-671 limits assumed): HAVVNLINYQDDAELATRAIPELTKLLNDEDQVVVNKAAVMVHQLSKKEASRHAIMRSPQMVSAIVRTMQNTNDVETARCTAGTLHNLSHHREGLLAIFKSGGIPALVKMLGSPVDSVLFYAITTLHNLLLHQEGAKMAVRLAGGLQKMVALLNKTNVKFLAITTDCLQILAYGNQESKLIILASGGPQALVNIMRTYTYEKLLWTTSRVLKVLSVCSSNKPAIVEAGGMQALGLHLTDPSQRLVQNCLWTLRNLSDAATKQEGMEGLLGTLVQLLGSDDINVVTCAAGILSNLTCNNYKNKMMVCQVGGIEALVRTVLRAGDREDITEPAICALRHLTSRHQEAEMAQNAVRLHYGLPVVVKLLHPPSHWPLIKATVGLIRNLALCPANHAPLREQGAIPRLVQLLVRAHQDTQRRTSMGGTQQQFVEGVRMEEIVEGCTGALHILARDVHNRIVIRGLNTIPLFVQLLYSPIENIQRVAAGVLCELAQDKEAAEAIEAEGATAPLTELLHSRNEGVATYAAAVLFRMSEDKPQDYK
From the text: as §1, §2, §3, §4

Which IC50 [1] does the source give for `COC(=O)c1cc(NC(=O)c2ccc(C(=O)Nc3cc(C(=O)OC)cc(C(=O)OC)c3)nc2)cc(C(=O)OC)c1` [TGC0000160] here?
Its IC50 is 38 µM.

And the IC50 [2]?
Its IC50 is over 100 µM.

`COc1cccc(NC(=O)c2ccc(C(=O)Nc3cccc(OC)c3)nc2)c1` [TGC0011280] was tested. Which IC50 [1] did it give?
The IC50 was over 100 µM.

And the IC50 [2]?
Its IC50 is 23 µM.

What about the IC50 [3] of the same compound?
Its IC50 is 21 µM.

With `CC(=O)c1ccc(NC(=O)c2ccc(C(=O)Nc3ccc(C(C)=O)cc3)nc2)cc1` [TGC0011285] as the compound, how does the IC50 [1] read?
The IC50 was 6 µM.

What about the IC50 [2] of the same compound?
Its IC50 is over 10 µM.

What about the IC50 [3] of the same compound?
Its IC50 is over 10 µM.

Which results are given for `COC(=O)c1ccc(NC(=O)c2ccc(C(=O)Nc3ccc(C(=O)OC)cc3)nc2)cc1` [TGC0011288]?
IC50 [1]: 2 µM; IC50 [2]: > 10 µM; IC50 [3]: > 10 µM

For `COc1ccc(CCNC(=O)c2ccc(C(=O)NCCc3ccc(OC)c(OC)c3)nc2)cc1OC` [TGC0011342], which IC50 [1] is on record?
Its IC50 is over 50 µM.

And the IC50 [2]?
The IC50 was over 50 µM.

What about the IC50 [3] of the same compound?
The IC50 was over 50 µM.

How did the IC50 [1] turn out when `Cc1nnc(NC(=O)c2ccc(C(=O)Nc3nnc(C)s3)nc2)s1` [TGC0011344] was run?
Its IC50 is 86 µM.

And the IC50 [2]?
Its IC50 is 119 µM.

And the IC50 [3]?
Its IC50 is 41.4 µM.

With `O=C(Nc1cccnc1)c1ccc(C(=O)Nc2cccnc2)nc1` [TGC0011423] as the compound, how does the IC50 [1] read?
The IC50 was 29 µM.

What about the IC50 [2] of the same compound?
The IC50 was over 100 µM.

What about the IC50 [3] of the same compound?
The IC50 was over 100 µM.

What does the source list for `O=C(NCc1ccco1)c1ccc(C(=O)NCc2ccco2)nc1` [TGC0011428]?
IC50 [1]: > 50 µM; IC50 [2]: > 50 µM; IC50 [3]: > 50 µM

How did the IC50 [1] turn out when `O=C(NCc1ccc2c(c1)OCO2)c1ccc(C(=O)NCc2ccc3c(c2)OCO3)nc1` [TGC0011430] was run?
The IC50 was over 50 µM.

And the IC50 [2]?
Its IC50 is over 50 µM.

What about the IC50 [3] of the same compound?
The IC50 was over 50 µM.

`COc1cccc(C(=O)Nc2ccc(-c3cnc(-c4ccc(NC(=O)c5cccc(OC)c5)cc4)nc3)cc2)c1` [TGC0011528] was tested. Which IC50 [1] did it give?
Its IC50 is over 50 µM.

And the IC50 [2]?
Its IC50 is over 50 µM.

What about the IC50 [3] of the same compound?
Its IC50 is over 50 µM.

What does the source list for `CCCC(=O)Nc1ccc(-c2cnc(-c3ccc(NC(=O)CCC)cc3)nc2)cc1` [TGC0011566]?
IC50 [1]: 68 µM; IC50 [2]: > 100 µM; IC50 [3]: > 100 µM

Which results are given for `COC(=O)c1ccc(NC(=O)c2ccc(C(=O)Nc3ccc(C(=O)OC)cc3Cl)nc2)c(Cl)c1` [TGC0011605]?
IC50 [1]: > 50 µM; IC50 [2]: 22 µM; IC50 [3]: 21 µM

For `O=C(Nc1ccc2oc(=O)ccc2c1)c1ccc(C(=O)Nc2ccc3oc(=O)ccc3c2)cc1` [TGC0012296], which IC50 [1] is on record?
Its IC50 is 3 µM.

What about the IC50 [2] of the same compound?
Its IC50 is over 10 µM.

And the IC50 [3]?
The IC50 was over 10 µM.

With `O=C(O)c1cccc(NC(=O)c2ccc(C(=O)Nc3cccc(C(=O)O)c3)cc2)c1` [TGC0012297] as the compound, how does the IC50 [1] read?
The IC50 was over 100 µM.

How did the IC50 [1] turn out when `N#Cc1ccccc1NC(=O)c1ccc(C(=O)Nc2ccccc2C#N)cc1` [TGC0012300] was run?
The IC50 was over 10 µM.

How did the IC50 [1] turn out when `N#Cc1cccc(NC(=O)c2ccc(C(=O)Nc3cccc(C#N)c3)cc2)c1` [TGC0012301] was run?
Its IC50 is over 50 µM.

How did the IC50 [1] turn out when `COC(=O)c1ccc(NC(=O)c2cc(OC)c(C(=O)Nc3ccc(C(=O)OC)cc3)cc2OC)cc1` [TGC0012302] was run?
Its IC50 is 94 µM.

And the IC50 [2]?
Its IC50 is over 100 µM.

What about the IC50 [3] of the same compound?
The IC50 was over 100 µM.

Which IC50 [1] does the source give for `N#Cc1ccc(NC(=O)c2ccc(C(=O)Nc3ccc(C#N)cc3)cc2)cc1` [TGC0012303] here?
Its IC50 is 5 µM.

And the IC50 [2]?
Its IC50 is over 10 µM.

What about the IC50 [3] of the same compound?
Its IC50 is over 10 µM.

For `COc1cc(NC(=O)c2ccc(C(=O)Nc3ccc(OC)c(OC)c3)nc2)cc(OC)c1` [TGC0012408], which IC50 [1] is on record?
The IC50 was 7 µM.

How did the IC50 [1] turn out when `COc1ccc(NC(=O)c2ccc(C(=O)Nc3ccc(NC(C)=O)cc3)cn2)cc1` [TGC0012409] was run?
The IC50 was 5 µM.
